Assay results taken from patent US10654802B2, “Indoline derivatives and method for using and producing the same” (ARIZONA BOARD OF REGENTS ON BEHALF OF THE UNIVERSITY OF …, priority 2016, dated 2020).

Columns and labels:
Nox4 = target: T1, Nox4 (Homo sapiens, UniProt Q9NPH5); assay: Inhibition of Nox4-dependent H2O2 production in HEK/Nox4 cells, Amplex Red assay; format: cell-based
T1 construct: expressed in transfected cells
T1 sequence (Q9NPH5 1-578): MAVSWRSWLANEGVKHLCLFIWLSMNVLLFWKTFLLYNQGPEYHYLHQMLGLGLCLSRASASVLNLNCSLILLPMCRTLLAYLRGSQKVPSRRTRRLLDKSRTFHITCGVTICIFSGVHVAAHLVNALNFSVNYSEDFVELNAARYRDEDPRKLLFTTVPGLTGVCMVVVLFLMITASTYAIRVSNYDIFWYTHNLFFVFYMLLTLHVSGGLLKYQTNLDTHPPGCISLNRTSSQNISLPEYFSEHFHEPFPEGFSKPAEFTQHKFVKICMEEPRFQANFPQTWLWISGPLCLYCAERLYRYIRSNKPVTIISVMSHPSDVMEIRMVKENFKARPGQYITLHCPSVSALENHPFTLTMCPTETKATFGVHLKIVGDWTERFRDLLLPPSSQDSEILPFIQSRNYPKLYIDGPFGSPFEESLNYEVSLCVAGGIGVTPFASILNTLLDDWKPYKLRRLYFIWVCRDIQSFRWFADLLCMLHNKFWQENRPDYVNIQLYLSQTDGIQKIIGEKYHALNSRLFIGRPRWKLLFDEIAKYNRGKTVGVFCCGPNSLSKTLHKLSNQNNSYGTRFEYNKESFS
T1 sequence (P13498 1-195 partner): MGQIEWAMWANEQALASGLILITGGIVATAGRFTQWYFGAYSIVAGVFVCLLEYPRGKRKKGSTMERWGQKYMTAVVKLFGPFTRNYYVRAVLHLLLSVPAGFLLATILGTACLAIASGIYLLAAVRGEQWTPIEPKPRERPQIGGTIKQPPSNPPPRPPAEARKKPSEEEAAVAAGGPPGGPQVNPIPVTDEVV
Method: A high-throughput screening (HTS) assay was established for Nox4 inhibition, utilizing HEK293 cells that stably over-express Nox4 (HEK/Nox4 cells), which generate high levels of H2O2(Cheng G et al, Gene: 2001, p. 131-140). Over 30,000 compounds have been screened and medicinal chemistry efforts have led to the synthesis of numerous analogs and the identification of a chemically distinct series of selective Nox4 inhibitors. […] IC-50 was evaluated for UANox048 (FIG. 1B).
HEK cells stably transfected to overexpress Nox4 were treated with varying concentrations of test compounds, DPI (all-Nox inhibitor positive control), or DMSO (vehicle control) and incubated for 1 h (FIG. 1). (FIG. 1A) H2O2 presence was evaluated by Amplex Red assay. […] Values represent means±SEM; n=4. P values were calculated by student's two-tailed t test. *p<0.05, **p<0.01, *** p<0.001.

[1] = system: HEK cells stably transfected to overexpress Nox4; assay: Cellular viability of HEK/Nox4 cells, CellTiter-Glo Assay; format: cell-based; conditions: 1 h, FIG. 2C
Method: Screening was performed to rule out false positives.
UANoxO48, DMSO (vehicle control), or catalase (known H2O2 scavenger positive control) was added to a cell-free assay containing exogenous H2O2(5 mM) and scavenger activity for H2O2 was assessed by (FIG. 2A) Amplex Red assay and (FIG. 2B) ROS-Glo assay (an HRP-free assay system to rule out assay interference). (FIG. 2C) HEK cells stably transfected to overexpress Nox4 were treated with UANox048, digitonin (an inducer of cell death), or DMSO (vehicle control) and incubated for 1 h. Cellular viability was evaluated by CellTiter-Glo Assay. Values represent means±SEM; n=4; P values were calculated by student's two-tailed t test. *p<0.05, **p<0.01, *** p<0.001.

[2] = Differential scanning calorimetry (DSC) thermal stability; format: physicochemical; conditions: solid state; room and body temperatures (32-37° C.)
Source text: Differential scanning calorimetry (DSC) was used, a highly sensitive thermos-analytical technique to quantify the thermotropic properties and phase transitions of drug candidates. […] X-ray powder diffraction (XRPD) is a non-destructive material science “gold standard” method for measuring the degree of long-range molecular order in the powder. This is critical for solid-state characterization, where drug candidates yield a unique pattern for any given crystalline phase; this provides a ‘molecular fingerprint’ for crystallinity identification. […] Attenuated Total Reflection Fourier Transform Infrared (ATR-FTIR) Spectroscopy is a non-destructive molecular identification tool based on the absorption of infrared light by vibrational transitions in covalent bonds. This provides a ‘molecular fingerprint’ for chemical identification. ATR-FTIR permits fine discrimination between like materials and/or batch-to-batch quality verification; it is used to identify active pharmaceutical ingredients (API). […] Scanning Electron Microscopy (SEM) with Energy Dispersive X-ray (EDX) is used to visualize the synthesized particles in their native solid-state and quantify important particle properties which directly influence formulation, including surface structure, particle morphology and size, and particle size range distribution. […]

Caco-2 cells = assay: Caco-2 permeability; format: in vitro ADME; conditions: 5 μM, 2 h
Method: (§1) In vitro absorption, distribution, metabolism, and excretion (ADME) were performed on selected analogs to assess their potential for continued pre-clinical development. UANox048 analog has favorable pharmacokinetic/pharmacodynamics properties, including a low molecular weight (384.4 g/mol), calculated log D value (4.07), and polar surface area (57.8 Å^2). The compounds were tested for cellular permeability and P-glycoprotein efflux susceptibility (P-gp efflux). […] P-gp efflux was calculated by comparing permeability through Caco-2 monolayers in both the apical-to-basolateral and basolateral-to-apical directions. Permeability for Caco-2 cells was determined by the lucifer yellow monolayer integrity test. Caco-2 cells were incubated with UANox048 (5 μM, 2 h) and flux of lucifer yellow across cell monolayers was determined by LC-MS/MS using electrospray ionization. Molecular weight, log D, and polar surface area calculations were performed with ChemDraw software.

P-glycoprotein = target: T2, P-glycoprotein (Homo sapiens, UniProt P08183); assay: P-glycoprotein efflux susceptibility in Caco-2 monolayers; format: in vitro ADME; conditions: apical-to-basolateral vs basolateral-to-apical
T2 construct: endogenous in cells; host or cells: Caco-2
Method: as §1

T2 sequence (P08183 whole entry): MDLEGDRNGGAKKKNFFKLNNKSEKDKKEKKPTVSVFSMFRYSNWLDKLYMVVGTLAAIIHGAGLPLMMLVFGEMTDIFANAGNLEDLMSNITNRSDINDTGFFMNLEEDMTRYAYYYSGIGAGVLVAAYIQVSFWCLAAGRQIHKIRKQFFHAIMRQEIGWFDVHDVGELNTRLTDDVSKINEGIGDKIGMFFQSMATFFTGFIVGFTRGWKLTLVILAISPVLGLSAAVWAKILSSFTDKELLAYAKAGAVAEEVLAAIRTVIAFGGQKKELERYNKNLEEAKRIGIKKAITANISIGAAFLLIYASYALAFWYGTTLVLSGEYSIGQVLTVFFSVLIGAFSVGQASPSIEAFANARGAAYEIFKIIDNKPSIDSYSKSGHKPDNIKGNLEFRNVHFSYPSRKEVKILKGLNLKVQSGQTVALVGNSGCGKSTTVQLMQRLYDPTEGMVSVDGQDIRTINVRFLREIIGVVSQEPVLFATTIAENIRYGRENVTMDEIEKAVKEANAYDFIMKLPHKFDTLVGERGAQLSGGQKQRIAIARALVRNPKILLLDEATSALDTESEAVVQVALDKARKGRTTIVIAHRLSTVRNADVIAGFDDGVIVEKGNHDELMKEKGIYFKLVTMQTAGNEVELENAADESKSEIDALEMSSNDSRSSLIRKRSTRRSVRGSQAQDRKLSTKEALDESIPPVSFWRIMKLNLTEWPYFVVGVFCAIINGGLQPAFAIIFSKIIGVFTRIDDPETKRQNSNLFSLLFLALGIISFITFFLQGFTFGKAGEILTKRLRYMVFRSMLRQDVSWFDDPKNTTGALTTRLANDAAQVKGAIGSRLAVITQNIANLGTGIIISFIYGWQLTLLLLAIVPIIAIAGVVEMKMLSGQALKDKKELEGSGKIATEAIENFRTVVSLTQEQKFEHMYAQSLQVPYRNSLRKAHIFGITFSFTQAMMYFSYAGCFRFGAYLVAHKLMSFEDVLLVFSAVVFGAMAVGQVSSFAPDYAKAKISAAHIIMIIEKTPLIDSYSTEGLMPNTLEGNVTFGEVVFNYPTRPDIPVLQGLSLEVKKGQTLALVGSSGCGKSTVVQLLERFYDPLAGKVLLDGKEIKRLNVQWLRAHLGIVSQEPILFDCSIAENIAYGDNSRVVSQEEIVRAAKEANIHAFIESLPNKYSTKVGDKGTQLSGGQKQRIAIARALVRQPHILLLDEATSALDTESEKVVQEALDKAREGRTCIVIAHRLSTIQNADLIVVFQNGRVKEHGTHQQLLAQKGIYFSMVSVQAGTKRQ

CC(CNS(=O)(=O)c1ccc(C(F)(F)F)cc1)N1CCc2ccccc21 (stereo not drawn) [UANOX048, N-(2-(indolin-1-yl)propyl)-4-(trifluoromethyl)benzenesulfonamide]
remaining activity at 1 µM (Nox4; 1 μM final concentration, 1 h, HEK/Nox4 cells, DMSO vehicle = 1.000, n = 3-10, read-out: H2O2 production relative to vehicle control, Mean): 89.3% | remaining activity at 5 µM (Nox4; 5 μM final concentration, 1 h, HEK/Nox4 cells, DMSO vehicle = 1.000, n = 3-10, read-out: H2O2 production relative to vehicle control, Mean): 76.5% | remaining activity at 10 µM (Nox4; 10 μM final concentration, 1 h, HEK/Nox4 cells, DMSO vehicle = 1.000, n = 3-10, read-out: H2O2 production relative to vehicle control, Mean): 69.3% | IC50 (Nox4; HEK/Nox4 cells, 1 h, Amplex Red, FIG. 1B): 4.8 µM | H2O2 generation by HEK/Nox4 cells (Nox4; varying concentrations, Amplex Red, FIG. 1A): dose-dependent decrease | cellular viability [1]: does not affect cellular viability | stability (DSC) [2]: highly stable | Caco-2 permeability (Caco-2 cells): high | P-gp efflux (P-glycoprotein): no P-gp efflux
